In patent EP1000624A1, “Use of DOP as antioxidant, anti-ageing additive and medicament” (priority 1998, dated 2000):

How the values were obtained:
[1] = tested on: Kornea, Iris und Konjunktiva; test: eye irritation test according to EU Commission 93/21/EEC; assay type: in vivo, Kaninchen; details: rabbit; effects on cornea, iris and conjunctiva after 24, 48 and 72 hours
Text: (§1) Um festzustellen, ob DOP Reizungen der Augen oder der Haut hervorrufen kann, wurde am Kaninchen ein Augenreiztest und ein Hautreiztest durchgeführt, beide gemäß der Verordnung der EU-Kommission Nr. 93/21/EEC vom 27.04.1993.

[2] = acute toxicity, peroral; set-up: species or system Ratte; details: in vivo, po, rat
Experimental: Die akute Toxizität von DOP wurde peroral an der Ratte bestimmt; die letale Dosis, bei der 50% der Versuchstiere verenden (LD50), beträgt mehr als 2000 mg/kg.

[3] = tested on: Haut; test: skin irritation test according to EU Commission 93/21/EEC; assay type: in vivo, Kaninchen; details: rabbit; after 24, 48 and 72 hours
Text: as §1

O=[PH]1Oc2ccccc2-c2ccccc21 (stereo not shown) [DOP, (6H)-Dibenz-(c,e)(1,2)-oxaphosphorin-6-on]
Augenreiztest: Einstufung [1]: nicht augenreizend
LD50 [2]: > 2000 mg/kg
Hautreiztest: Einstufung [3]: nicht hautreizend
Hautreiztest: Erythembildung / Oedembildung [3]: weder eine Erythembildung noch eine Oedembildung
